Columns and labels:
[1] = tested on: PKB Ser473 phosphorylation in Rat1-myr-HA-p110 beta cells; experiment: Reverse protein array assay, PKB Ser473 phosphorylation in Rat1-myr-p110 beta cells; type: cell-based; conditions: 0.5 h, pAkt Ser473, 30 minutes incubation, read-out: p-PKB IC50
Method: (§1) The Rat1-myr-HA-p110 alpha, beta and delta cells were trypsinized and counted with a CASY TT cell counter (Schärfe System GmbH, Reutlingen Germany). […] The plates were incubated at 37° C. and 5% CO2 under humidified condition for at least 20 h. Compound of formula I working solutions were prepared freshly as serial 8 step dilutions (vol/vol) in DMSO on the day of the experiment. […] The final DMSO concentration was kept constant at 0.2%. cell culture medium containing 0.2% DMSO was used as vehicle treatment control. Post incubation, the cells were treated with the serial compound dilution. 50 μl of the compound medium mixture was added to the wells containing cells and 150 μl DMEM medium and incubated for 30 minutes (37° C., 5% CO2). After 30 minutes of incubation, the medium mixture was quickly removed by aspiration. […] 50 μl of the described lysis buffer mix was added to each well, followed by 10 minutes of incubation on ice.
(§2) The samples were spotted onto ZeptoMARKt PWG protein microarray chips (Zeptosens, Witterswil, Switzerland) with the piezoelectric microdispense-based, non-contact Nano-Plotter 2.1 (GeSiM, Grosserkmannsdorf, Germany). Each sample was spotted at 4 different sample concentrations (d1=100%, d2=75%, d3=50%, d4=25%) by diluting the cell lysate with the corresponding volume of lysis buffer mix. After spotting the ZeptoMARK® protein microarrays, the chips are incubated for 1 hour at 37° C. […] After 20 minutes of blocking the chips are extensively rinsed with deionized water (Milli-Q quality, 18MΩ×cm) and dried in a nitrogen air flow.
(§3) After incubation, the arrays were washed twice with 200 μl CAB1 buffer. […] The fluorescence signal was assessed with exposure times of 1, 3, 5 and 10 seconds, depending on the intensity of the signal. The resulting four images taken per array are stored as 16-bit TIF files.
(§4) The fluorescence images for each array were analyzed with the ZeptoVIEW Pro 2.0 software (Zeptosens, Witterswil, Switzerland) and the relative fluorescence intensity for each signal was calculated.

[2] = tested on: PKB Ser473 phosphorylation in Rat1-myr-HA-p110 alpha cells; experiment: Reverse protein array assay, PKB Ser473 phosphorylation in Rat1-myr-p110 alpha cells; type: cell-based; conditions: 0.5 h, pAkt Ser473, 30 minutes compound incubation, read-out: p-PKB IC50
Method: as §1, §2, §3, §4

[3] = tested on: PKB Ser473 phosphorylation in Rat1-myr-HA-p110 delta cells; experiment: Reverse protein array assay, PKB Ser473 phosphorylation in Rat1-myr-p110 delta cells; type: cell-based; conditions: read-out: p-PKB IC50
Method: as §1, §2, §3, §4

[4] = tested on: S6 Ribosomal Protein phosphorylation Ser235/236 in TSC1 null mouse embryo fibroblast (MEF) cells; experiment: Reverse protein array assay, S6 Ribosomal Protein phosphorylation Ser235/236 in TSC1 null MEF cells; type: cell-based; conditions: 1 h, pS6 ribosomal protein Ser235/236, 60 minutes incubation, read-out: p-S6 IC50
Method: as §1, with “TSC1−/−” for “Rat1-myr-HA-p110 alpha, beta and delta”, “(Schirfe” for “(Schärfe”, “Working” for “Compound of formula I working”, “0.02%.” for “0.2%.”, “0.02%” for “0.2%”, “60” for “30”
The spotting of the chips follows the previous described method.

mTOR = target: T1, mTOR (Homo sapiens, UniProt P42345); experiment: Biochemical assay for m-TOR by TR-FRET; conditions: 8 μM ATP, 400 nM GFP-4EBP1, 0.5 nM mTOR
T1 construct: purchased Invitrogen Corporation (Carlsbad/CA, USA) PV4753
T1 sequence (P42345 1360-2549 limits assumed): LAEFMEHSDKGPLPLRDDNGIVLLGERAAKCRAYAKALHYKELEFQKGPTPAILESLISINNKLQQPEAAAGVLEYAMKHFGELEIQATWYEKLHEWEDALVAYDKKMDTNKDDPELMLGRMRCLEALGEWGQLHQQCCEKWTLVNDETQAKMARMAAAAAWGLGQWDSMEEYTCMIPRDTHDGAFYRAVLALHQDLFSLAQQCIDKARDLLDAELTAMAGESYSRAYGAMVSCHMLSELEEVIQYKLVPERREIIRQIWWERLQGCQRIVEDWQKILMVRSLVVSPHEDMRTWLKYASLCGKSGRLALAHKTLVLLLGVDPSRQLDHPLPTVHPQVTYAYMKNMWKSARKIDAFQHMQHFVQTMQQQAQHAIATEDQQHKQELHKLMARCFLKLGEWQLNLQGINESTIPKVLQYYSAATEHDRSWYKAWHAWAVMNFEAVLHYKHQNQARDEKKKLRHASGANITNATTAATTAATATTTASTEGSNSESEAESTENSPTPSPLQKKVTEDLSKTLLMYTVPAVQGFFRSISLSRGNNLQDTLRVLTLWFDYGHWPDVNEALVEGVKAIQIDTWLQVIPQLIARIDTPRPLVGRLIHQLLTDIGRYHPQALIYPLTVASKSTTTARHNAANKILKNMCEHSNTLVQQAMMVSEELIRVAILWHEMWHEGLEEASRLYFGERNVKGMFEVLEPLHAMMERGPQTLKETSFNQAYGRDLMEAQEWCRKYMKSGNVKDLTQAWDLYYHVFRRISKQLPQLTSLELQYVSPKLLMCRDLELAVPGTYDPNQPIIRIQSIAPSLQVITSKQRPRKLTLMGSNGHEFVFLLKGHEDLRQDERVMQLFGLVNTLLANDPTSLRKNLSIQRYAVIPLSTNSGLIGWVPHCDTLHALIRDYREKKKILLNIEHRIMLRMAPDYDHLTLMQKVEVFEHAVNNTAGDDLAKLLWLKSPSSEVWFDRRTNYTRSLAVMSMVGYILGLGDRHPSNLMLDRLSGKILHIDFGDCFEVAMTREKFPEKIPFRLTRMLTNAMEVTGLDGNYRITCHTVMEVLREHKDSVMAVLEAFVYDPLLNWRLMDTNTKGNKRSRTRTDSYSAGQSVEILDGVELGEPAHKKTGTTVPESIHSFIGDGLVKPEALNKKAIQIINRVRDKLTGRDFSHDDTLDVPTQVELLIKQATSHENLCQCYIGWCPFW
Method: Biochemical Assay for m-TOR by TR-FRET.
Assay components are purchased from Invitrogen Corporation (Carlsbad/CA, USA): GFP-4EBP1 (Cat. No. PV4759), Tb3+-α-p4EBP1 [pThr46] Antibody (Cat. No. PV4757), proprietary TR-FRET dilution buffer (Cat. No. PV3574), mTOR protein (Cat. No. PV4753).
Then 5 μL of ATP (8 μM final concentration) and GFP-4EBP1 (400 nM final concentration) with 5 μL mTOR proteins (0.5 nM final concentration) are incubated at rt. The standard reaction buffer for the TR-FRET mTOR assay contained 50 mM HEPES pH 7.5, 10 mM MnCl2, 50 mM NaCl, 1 mM EGTA, 1 mM DTT. Reactions were stopped with 10 μL of a mixture of EDTA containing the Tb3+-α-p4EBP1-[pT46] detection Ab (0.5 nM) in TR-FRET dilution buffer (proprietary to IVG). Plates are read 15 mins later in a Synergy2 reader using an integration time of 0.2 seconds and a delay of 0.1 seconds. […] A standard compound is used as a reference compound and included in all assay plates in the form of 16 dilution points in duplicate.

PI3K alpha = target: T2, PI3K alpha (Homo sapiens, UniProt P42336); experiment: PI3K alpha kinase assay (Kinase-Glo luminescence); type: biochemical
T2 construct: p85(iSH2) fusion partner (see partner chain) (N); His tag (C); made in house; host or cells: baculovirus; Tn5 (Trichoplusia ni) or TiniPro insect cells
T2 sequence (P42336 with tags, fused parts or gaps limits assumed): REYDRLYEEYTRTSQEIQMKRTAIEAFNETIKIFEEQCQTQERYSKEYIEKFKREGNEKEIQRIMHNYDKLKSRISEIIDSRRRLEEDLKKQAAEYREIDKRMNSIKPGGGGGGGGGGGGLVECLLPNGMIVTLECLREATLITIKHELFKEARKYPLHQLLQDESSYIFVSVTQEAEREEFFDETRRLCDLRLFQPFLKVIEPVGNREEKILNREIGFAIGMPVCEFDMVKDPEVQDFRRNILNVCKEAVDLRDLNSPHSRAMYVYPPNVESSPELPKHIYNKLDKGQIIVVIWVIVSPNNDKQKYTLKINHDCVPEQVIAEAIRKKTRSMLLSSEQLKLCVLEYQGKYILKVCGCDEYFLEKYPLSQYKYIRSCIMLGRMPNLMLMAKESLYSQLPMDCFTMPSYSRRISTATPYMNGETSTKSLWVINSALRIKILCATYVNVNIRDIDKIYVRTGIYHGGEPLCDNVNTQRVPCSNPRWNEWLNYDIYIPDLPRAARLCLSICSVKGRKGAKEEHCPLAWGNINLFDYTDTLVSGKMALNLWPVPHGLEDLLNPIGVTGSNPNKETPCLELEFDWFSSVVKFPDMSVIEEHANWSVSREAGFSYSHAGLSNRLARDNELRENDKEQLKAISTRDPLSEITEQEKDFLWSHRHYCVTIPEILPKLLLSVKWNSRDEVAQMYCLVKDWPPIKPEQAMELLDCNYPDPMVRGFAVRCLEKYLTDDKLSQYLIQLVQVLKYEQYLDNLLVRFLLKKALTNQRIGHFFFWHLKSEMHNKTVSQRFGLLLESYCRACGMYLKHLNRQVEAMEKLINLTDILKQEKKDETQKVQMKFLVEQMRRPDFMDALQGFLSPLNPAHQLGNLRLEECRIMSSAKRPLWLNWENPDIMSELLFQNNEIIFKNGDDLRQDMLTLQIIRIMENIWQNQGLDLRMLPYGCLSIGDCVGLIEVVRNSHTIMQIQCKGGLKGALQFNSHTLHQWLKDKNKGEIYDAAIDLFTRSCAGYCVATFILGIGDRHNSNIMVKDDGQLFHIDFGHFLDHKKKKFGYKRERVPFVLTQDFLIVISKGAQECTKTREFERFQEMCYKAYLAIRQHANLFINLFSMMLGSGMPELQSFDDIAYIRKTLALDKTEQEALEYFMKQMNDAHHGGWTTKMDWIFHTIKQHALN
Method: (§5) In a more preferred assay, the kinase reaction is performed in a final volume of 10 μL per well of a low volume non binding CORNING, 384 well black plate (Cat. No. #3676). The final concentrations of ATP and phosphatidyl inositol (PI) in the assay are 1 μM and 10 μg/mL respectively. The reaction is started by the addition of ATP.
(§6) The components of the assay are added per well as follows:
(§7) […] in 90% DMSO per well, in columns 1-20, 8 concentrations (1/3 and 1/3.33 serial dilution step) in single. • Low control: […] of 90% DMSO in half the wells of columns 23-24 (0.45% in final). • High control: […] of reference compound (e.g. compound of Example 7 in WO 2006/122806) in the other half of columns 23-24 (2.5 μM in final). • Standard: […] of reference compound as just mentioned diluted as the test compounds in columns 21-22 • 20 mL ‘buffer’ are prepared per assay: • 200 μL of 1M TRIS HCl pH7.5 (10 mM in final) • 60 μL of 1M MgCl2 (3 mM in final) • 500 μL of 2M NaCl (50 mM in final) • 100 μL of 10% CHAPS (0.05% in final) • 200 μL of 100 mM DTT (1 mM in final) • 18.94 mL of nanopure water • 10 mL ‘PI’ are prepared per assay: • 200 μL of 1 mg/ml L-alpha-Phosphatidylinositol (Liver Bovine, Avanti Polar Lipids Cat. No. 840042C MW=909.12) prepared in 3% OctylGlucoside (10 μg/ml in final) • 9.8 mL of ‘buffer’ • 10 mL ‘ATP’ are prepared per assay: • 6.7 μL of 3 mM stock of ATP giving a final concentration of 1 μM per well • 10 mL of ‘buffer’ • 2.5 mL of each PI3K construct are prepared per assay in ‘PI’ with the following final concentration: • 10 nM PI3K alfa EMV B1075 • 25 nM beta EMV BV949 • 10 nM delta EMV BV1060 • 150 nM gamma EMV BV950 • 5 μL of ‘PI/PI3K’ are added per well. • 5 μl ‘ATP’ are added per well to start the reaction. • The plates are then incubated at room temperature for 60 minutes (alfa, beta, delta) or 120 minutes (gamma). • The reaction is terminated by the addition of 10 μL Kinase-Glo (Promega Cat. No. #6714). • The assay plates are read after 10 minutes in Synergy 2 reader (BioTek, Vermont USA) with an integration time of 100 milliseconds and sensitivity set to 191. • Output: The High control is around 60'000 counts and the Low control is 30'000 or lower • This luminescence assay gives a useful Z′ ratio between 0.4 and 0.7
Two different constructs, BV 1052 and BV 1075, are used to generate the PI3 Kinase a proteins for compound screening.
(§8) IC50 is determined by a four parameter curve fitting routine that comes along with “excel fit”. […] Alternatively, IC50 values are calculated using idbsXLfit model 204, which is a 4 parameter logistic model.

PI3K delta = target: T3, PI3K delta (Homo sapiens, UniProt O00329); experiment: PI3K delta kinase assay (Kinase-Glo luminescence); type: biochemical
T3 construct: for the full-length p110-d subunit are generated and fused by overlapping PCR; p85(iSH2) fusion partner (see partner chain) (N); His tag (C); made in house; host or cells: baculovirus; Tn5 (Trichoplusia ni) or TiniPro insect cells
T3 sequence (O00329 with tags, fused parts or gaps limits assumed): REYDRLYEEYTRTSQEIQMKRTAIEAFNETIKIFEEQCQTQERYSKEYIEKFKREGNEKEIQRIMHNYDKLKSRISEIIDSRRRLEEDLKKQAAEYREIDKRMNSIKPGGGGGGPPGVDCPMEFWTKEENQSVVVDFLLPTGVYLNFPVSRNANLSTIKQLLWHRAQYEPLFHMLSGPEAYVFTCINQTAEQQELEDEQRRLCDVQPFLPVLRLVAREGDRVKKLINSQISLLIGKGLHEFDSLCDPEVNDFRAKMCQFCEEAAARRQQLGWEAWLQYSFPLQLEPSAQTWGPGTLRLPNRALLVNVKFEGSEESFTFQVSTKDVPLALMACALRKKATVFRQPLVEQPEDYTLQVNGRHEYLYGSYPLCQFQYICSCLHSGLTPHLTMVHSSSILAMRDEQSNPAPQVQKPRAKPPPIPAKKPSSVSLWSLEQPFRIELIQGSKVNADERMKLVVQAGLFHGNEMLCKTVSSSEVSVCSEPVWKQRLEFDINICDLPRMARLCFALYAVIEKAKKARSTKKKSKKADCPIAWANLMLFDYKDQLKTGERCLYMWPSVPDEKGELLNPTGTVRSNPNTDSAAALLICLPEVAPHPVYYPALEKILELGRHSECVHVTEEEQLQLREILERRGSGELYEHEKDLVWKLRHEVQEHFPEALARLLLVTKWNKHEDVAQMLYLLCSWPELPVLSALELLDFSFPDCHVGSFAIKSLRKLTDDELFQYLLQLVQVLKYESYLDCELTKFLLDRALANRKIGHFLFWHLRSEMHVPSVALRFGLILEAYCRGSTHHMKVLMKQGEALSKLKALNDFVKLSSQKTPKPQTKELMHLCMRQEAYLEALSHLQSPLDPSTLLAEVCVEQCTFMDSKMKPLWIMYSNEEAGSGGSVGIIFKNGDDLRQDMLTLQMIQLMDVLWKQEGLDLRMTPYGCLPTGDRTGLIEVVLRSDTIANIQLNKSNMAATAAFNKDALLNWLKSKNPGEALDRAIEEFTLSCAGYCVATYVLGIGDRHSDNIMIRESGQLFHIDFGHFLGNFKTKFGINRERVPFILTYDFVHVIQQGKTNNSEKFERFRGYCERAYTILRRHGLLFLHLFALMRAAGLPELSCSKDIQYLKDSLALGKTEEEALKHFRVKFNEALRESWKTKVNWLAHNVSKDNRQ
Method: as §5, §6, §7
PI3Kγ BV-1060 p85(iSH2)-Gly Linker-p110d(Full-Length)-C-Term his Tag
as §8

| Compound | IC50 [1] | IC50 [2] | IC50 [3] | IC50 (mTOR) | IC50 (PI3K alpha) | IC50 (PI3K delta) | IC50 [4] |
| --- | --- | --- | --- | --- | --- | --- | --- |
| Cc1nn(C)cc1-n1c(=O)n(C)c2cnc3ccc(-c4ccc(-n5ccnc5C)nc4)cc3c21 [Example 78, 1-(1,3-Dimethyl-1H-pyrazol-4-yl)-3-methyl-8-[6-(2-methyl-imidazol-1-yl)-pyridin-3-yl]-1,3-dihydro-imidazo[4,5-c]quinolin-2-one] | 386 nM | 264 nM | 959 nM |  |  |  |  |
| COc1cc(-c2ccc3ncc4c(c3c2)n(-c2cn(C)nc2C)c(=O)n4C)cnc1OC [Example 204, 8-(5,6-Dimethoxy-pyridin-3-yl)-1-(1,3-dimethyl-1H-pyrazol-4-yl)-3-methyl-1,3-dihydro-imidazo[4,5-c]quinolin-2-one] | 12 nM | 8 nM | 9 nM |  |  |  | < 0.5 nM |
| COc1ccc(-c2ccc3ncc4c(c3c2)n(-c2cn(C)nc2Cl)c(=O)n4C)cc1OC [1.10—] |  |  |  | 14 nM |  |  |  |
| Cc1nn(C)cc1-n1c(=O)n(C)c2cnc3ccc(-c4ccc(NC5CCOCC5)nc4)cc3c21 [Example 214, 1-(1,3-Dimethyl-1H-pyrazol-4-yl)-3-methyl-8-[6-(tetrahydro-pyran-4-ylamino)-pyridin-3-yl]-1,3-dihydro-imidazo[4,5-c]quinolin-2-one] | 608 nM | 285 nM |  |  |  |  | 46 nM |
| Cc1nn(CC(=O)N2CCN(C)CC2)cc1-n1c(=O)n(C)c2cnc3ccc(-c4ccccc4)cc3c21 [Example 134, 3-Methyl-1-{3-methyl-1-[2-(4-methyl-piperazin-1-yl)-2-oxo-ethyl]-1H-pyrazol-4-yl}-8-phenyl-1,3-dihydro-imidazo[4,5-c]quinolin-2-one] |  |  |  | 100 nM | 543 nM |  |  |
| CCOc1cc(-c2ccc3ncc4c(c3c2)n(-c2cn(C)nc2C)c(=O)n4C)cnc1OC [Example 94, 1-(1,3-Dimethyl-1H-pyrazol-4-yl)-8-(5-ethoxy-6-methoxy-pyridin-3-yl)-3-methyl-1,3-dihydro-imidazo[4,5-c]quinolin-2-one] | 11 nM | < 5 nM | 9 nM |  |  |  |  |

More lines, main results first:

| IC50 [1] | IC50 [2] | IC50 [3] | IC50 (mTOR) | IC50 (PI3K alpha) | IC50 (PI3K delta) | Compound | IC50 [4] |
| --- | --- | --- | --- | --- | --- | --- | --- |
| 66 nM | 22 nM | 81 nM |  |  |  | COc1ccc(-c2ccc3ncc4c(c3c2)n(-c2cnn(C)c2C)c(=O)n4C)cc1OC [Example 1.1, 8-(3,4-Dimethoxy-phenyl)-1-(1,5-dimethyl-1H-pyrazol-4-yl)-3-methyl-1,3-dihydro-imidazo[4,5-c]quinolin-2-one] | 4 nM |
| 154 nM | 158 nM | 278 nM | 251 nM |  |  | CCn1nccc1-n1c(=O)n(C)c2cnc3ccc(-c4ccc(N(C)C)nc4)cc3c21 [Example 4.8, 8-(6-Dimethylamino-pyridin-3-yl)-1-(2-ethyl-2H-pyrazol-3-yl)-3-methyl-1,3-dihydro-imidazo[4,5-c]quinolin-2-one] |  |
| 119 nM | 58 nM |  | 123 nM | 220 nM | 211 nM | CO[C@H]1CCN(c2ccc(-c3ccc4ncc5c(c4c3)n(-c3cn(C)nc3C)c(=O)n5C)cn2)C1 [Example 213.2, 1-(1,3-Dimethyl-1H-pyrazol-4-yl)-8-[6-((S)-3-methoxy-pyrrolidin-1-yl)-pyridin-3-yl]-3-methyl-1,3-dihydro-imidazo[4,5-c]quinolin-2-one] |  |
|  | 828 nM |  | 99 nM | 971 nM |  | Cc1nn(CC(=O)N2CCN(C)CC2)cc1-n1c(=O)n(C)c2cnc3ccc(-c4cnc(N5CCCC5)nc4)cc3c21 [Example 247.5, 3-Methyl-1-{3-methyl-1-[2-(4-methyl-piperazin-1-yl)-2-oxo-ethyl]-1H-pyrazol-4-yl}-8-(2-pyrrolidin-1-yl-pyrimidin-5-yl)-1,3-dihydro-imidazo[4,5-c]quinolin-2-one] | 201 nM |

Reference: patent US20140005163A1 (NOVARTIS AG, priority 2010, published 2014)
